Read-outs that look alike come from different tables or passages of the source.
Assays:
[1] = Test of hydrogen sulfide detection sensitivity (% decomplexation with NaHS, radio-TLC); type: physicochemical; settings: for % decomplexation: 37° C. for 15 minutes
In short: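 ^64Cu-labelled complex (about 45 μCi-55 μCi) mixed with NaHS at various concentrations in triple distilled water, 500 μL total, stirred 15 min at 37° C. Copper sulfide (^64CuS) formation quantified as % decomplexation by radio-TLC scanner.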

[2] = tested on: Paw inflammation model; type: in vivo, Balb/c or ICR mice
In short: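 CFA or formalin injected into right hind paw of Balb/c or ICR mice; used 1 day later. PET/CT, optical and Cherenkov (^64Cu, CCD) imaging, 1–5 min acquisitions, dose about 50–2000 μCi, imaged immediately and at 1, 4 and 24 hours post-injection.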

[3] = Test of hydrogen sulfide-specific imaging (matrigel/NaHS sites on backs of rats, optical imaging); type: in vivo
Experimental: In order to examine whether the ^64Cu-labeled complex compounds according to the present disclosure are able to selectively detect in vivo hydrogen sulfide, different materials were injected into the backs of rats, and then each ^64Cu-labeled complex compound according to the present disclosure was injected via the tail, and then selective imaging was examined by optical imaging.
Referring to FIG. 4, at the beginning of the first experiment, matrigel alone, matrigel+1 mg NaCl, matrigel+0.5 mg NaHS, and matrigel+0.05 mg NaHS were injected into four sites on the backs of rats, respectively. 1.8 mCi of the ^64Cu-labeled complex compound according to Example 1 was injected via the tails of rats, immediately followed by optical imaging.

[4] = tested on: EMT6 tumor; test: Imaging study in EMT6 tumor model (PET); type: in vivo, BALB/c female mouse
Description: To prepare an EMT6 tumor model, the number of cells was counted using a haemacytometer, and 2×10^5 cells were subcutaneously injected into the right flank and left shoulder region of BALB/c female mouse. About 2˜3 weeks later, when formation of about 1 cm of tumor was observed, the mice were used in subsequent experiments.
(§1) PET images were obtained after injecting the ^64Cu-labeled complex compound of Example 1 into the prepared rat model having EMT6 tumor and rat model having CT26 tumor.

[5] = Imaging study of hydrogen sulfide in normal rat (PET); type: in vivo; settings: PET image before excision of the tongue
Description: PET images were obtained after injecting the ^64Cu-labeled complex compound of Example 1 into a normal rat, and PET images were obtained again after excision of the tongue thereof. […] However, after excision (B), the uptake was decreased in the same site. […] (C) is a photograph taken before imaging the tongue after excision.

[6] = tested on: Arthritis model; test: Imaging in arthritis model; type: in vivo, DBA/1J mice
Experimental: An arthritis inducer, bovine type II collagen was intradermally injected into the tails of DBA/1J mice twice, and 5 weeks later (about 13-week-old), the mice were used in imaging tests. Arthritis degree of the paw was quantified by scoring.
Nuclear medicine imaging was measured by using an Inveon PET/CT system of Siemens Healthcare, and optical imaging was measured by using IVIS spectrum CT equipment. Cherenkov radiation emitted from ^64Cu was measured by using a highly sensitive CCD (charge-coupled device) camera.
Imaging was measured for 1 minute to 5 minutes, and a radiation dose was about 50 μCi to 2000 μCi, and photographs were variously taken as needed, such as immediately after first injection, at 1 hour, 4 hours, and 24 hours later.

[7] = tested on: CT26 tumor; test: Imaging study in CT26 tumor model (PET); type: in vivo, BALB/c mouse
Description: To prepare a CT26 tumor model, the number of cells was counted using a haemacytometer, and 5×10^6 cells were subcutaneously injected into the right flank of BALB/c mouse. About 10 days later, when formation of about 1 cm of tumor was observed, the mice were used in subsequent experiments.
as §1

[8] = tested on: Sepsis model; test: Imaging study in sepsis model (PET); type: in vivo, ICR mice
Description: After the lower abdominal region of ICR mice was opened, a small puncture in the appendix was made by using a syringe needle to prepare an acute sepsis model.
PET images were obtained after injecting the ^64Cu-labeled complex compound of Example 20 into the prepared rat model having sepsis.

For `C1C[N]2CC[N]3CC[N]4CC[N]1[64Cu]243` [Example 1, ^64Cu-labeled cyclen], which “% decomplexation” value ([1]; NaHS 0 μM) is on record?
The value was 0%.

And the “% decomplexation” value ([1]; NaHS 1 μM)?
Its value is 3%.

What about the “% decomplexation” value ([1]; NaHS 10 μM) of the same compound?
Its value is 11%.

And the “% decomplexation” value ([1]; NaHS 15 μM)?
The value was 63%.

And the “% decomplexation” value ([1]; NaHS 20 μM)?
The value was 95%.

And the “% decomplexation” value ([1]; NaHS 50 μM)?
The value was 100%.

What about the “% decomplexation” value ([1]; NaHS 100 μM) of the same compound?
The value was 100%.

What about the “sensitivity for hydrogen sulfide (lowest detectable concentration), in words” value ([1]; comparison among tested complexes) of the same compound?
The value was “most excellent sensitivity for hydrogen sulfide”.

What about the “retention time in the animal models” value ([2]; ICR and Balb/c, mouse, in vivo) of the same compound?
The value was at least 24 h.

And the “uptake in inflamed paw versus opposite paw” value ([2]; PET imaging)?
Its value is “higher uptake in the inflamed right paw than in the opposite paw”.

What about the “uptake in the CFA-induced inflamed site” value ([2]; optical imaging) of the same compound?
The value was “increased uptake”.

What about the “optical imaging signals at four injected sites (matrigel alone, +NaCl, +0.5 mg NaHS, +0.05 mg NaHS)” value ([3]; 1.8 mCi via the tails of rats, imaging immediately) of the same compound?
The value was “signals were detected only in the lower two sites injected with NaHS”.

What about the “optical imaging signals at four injected sites (matrigel alone, +NaCl, +0.5 mg NaHS, +0.05 mg NaHS)” value ([3]; after 4 hours) of the same compound?
The value was “signals were still detected only in the lower two sites”.

And the “uptake in the tumor region versus background” value [4]?
The value was “higher uptake was observed in the tumor region”.

And the “uptake in the tongue” value [5]?
The value was “high uptake was observed in the tongue”.

And the “uptake in the joint region” value [6]?
The value was “selective uptake in the joint region”.

What about the “uptake in the tumor region versus background” value [7] of the same compound?
Its value is “higher uptake was observed in the tumor region”.

Which “% decomplexation” value ([1]; NaHS 0 μM) does the source give for `C1C[N]2CC[N]3CC[N]1[64Cu]23` [Example 20, ^64Cu-labeled TACN] here?
The value was 0%.

And the “% decomplexation” value ([1]; NaHS 1 μM)?
Its value is 0%.

What about the “% decomplexation” value ([1]; NaHS 10 μM) of the same compound?
The value was 9%.

What about the “% decomplexation” value ([1]; NaHS 15 μM) of the same compound?
Its value is 11%.

What about the “% decomplexation” value ([1]; NaHS 20 μM) of the same compound?
The value was 13.5%.

And the “% decomplexation” value ([1]; NaHS 50 μM)?
Its value is 24.6%.

And the “% decomplexation” value ([1]; NaHS 100 μM)?
Its value is 54.4%.

What about the “detection of the inflamed site immediately after injection” value ([2]; imaging immediately after injection) of the same compound?
The value was “detected in imaging immediately after injection”.

What about the “uptake in inflamed paw versus opposite paw” value ([2]; imaging performed after 1 hour, also PET imaging) of the same compound?
Its value is “higher uptake”.

What about the “uptake in the lung” value [8] of the same compound?
Its value is “increased uptake was observed in the lung”.

And the “uptake throughout the body” value [8]?
Its value is “uptake was increased throughout the body”.

Reference: patent US10583206B2, “Radioactive probe for detecting hydrogen sulfide” (KYUNGPOOK NATIONAL UNIVERSITY INDUSTRY-ACADEMIC COOPERATION …, priority 2015, dated 2020)
